{"source": "paper PMC10778704", "about": "“Comparative Analysis of Cyclization Techniques in Stapled Peptides: Structural Insights into Protein–Protein Interactions in a SARS-CoV-2 Spike RBD/hACE2 Model System” (International Journal of Molecular Sciences, 2023)", "key": {"[1]": {"test": "Far-UV circular dichroism, calculated percent helicity in phosphate buffer", "assay_type": "physicochemical", "settings": "100 µM in 10 mM sodium phosphate buffer (PBS), pH 7.4, 25 °C; calculated at 222 nm", "experimental": "Figure 3 Data generated from Far-UV CD spectra for hACE2-derived peptides measured at a concentration of 100 µM in 10 mM sodium phosphate buffer at pH 7.4 and 25 °C. (A) Far-UV CD spectra of hACE2 (Asp30-Asp38)-derived linear and i, i + 4 staple peptides in molar ellipticity per residue. (B) Table listing the derivatives of 1 with a focus on the macrocyclization technique and measure-based calculated helicity (%) via CD. (C) CD spectra of hACE2 (His34-Gln42)-derived linear and i, i + 4 staple peptides in molar ellipticity per residue. (D) Table listing the derivatives of 2 with a focus on the macrocyclization technique and measure-based calculated helicity (%) via CD. HDY 1,5-Hexadiyne; BMB 1,4-Bis(bromomethyl)benzene; HFB hexafluorobenzene. ^a Predicted helicity (%) using AGADIR online software available at http://agadir.crg.es (accessed on 17 April 2023); it is only applicable to peptides consisting of natural amino acids. […]\nThe raw CD data (mdeg) were converted to mean residue ellipticity ( [θ] , deg·cm^2·dmol^−1·res^−1) by normalizing for peptide concentration, the number of amide bonds and path length, using Equation (2):(2) [θ]=θ/10×C×Np×l where θ is the measured ellipticity (mdeg), C is the peptide molar concentration (M), Np is the number of amino acid residues in the peptide and l is the cell path length (cm).\nThe maximum mean ellipticity [θ]max was calculated using Equation (3), as reported previously:(3) [θ]max=−44000+250×T×1−k/Np where T is temperature (°C) and k is the number of non-hydrogen-bonded peptide carbonyls. […]"}, "[2]": {"settings": "reference control; cited from earlier work"}, "circular dichroism": {"test": "circular dichroism", "settings": "10 mM Na phosphate; pH 7.4; 25 °C; 100 uM"}, "[3]": {"assay_type": "physicochemical", "settings": "100 µM in 50/50 TFE/10 mM sodium phosphate buffer, pH 7.4, 25 °C"}, "[4]": {"test": "BeStSel analysis of Far-UV CD spectra (secondary structure content)", "assay_type": "physicochemical", "settings": "from Far-UV CD spectra", "source_text": "This finding prompted us to synthesize the lactam stapled peptides 22 and 23. Similar to our observations of compound 10, we also noted a dominant conformation of 22 attributable to a regular helix1 (53.7%) and an antiparallel, right-twisted β-sheet (46.3%). Therefore, the high percentage of calculated helicity in compounds 10 and 22 can be explained on the basis of the contribution of a strong, negative absorbance band within the 217–218 nm spectral range of the Far-UV CD spectra. Such features are typical of a right-twisted β-sheet.\nWe were also successful at applying several cyclization strategies across the panel of hACE2 (His34-Gln42)-derived peptides. […] The associated root mean square deviation (RMSD) was 0.5. […] The distortion of the helical conformation can be partially explained by the highly polar nature of our peptide sequence (7 out of 9 amino acids) and inherent limitations in terms of the maximum helicity possible for short peptides due to C- and N-terminal distortions. […] That finding highlights the substantial influence of the initial linear sequence on staple-induced helicity."}, "[5]": {"target": "SARS-CoV-2 Spike RBD/hACE2 interactions (Severe acute respiratory syndrome coronavirus 2, UniProt P0DTC2)", "assay_type": "biochemical, SARS-CoV-2 / human"}, "[6]": {"settings": "37 °C, comparison in words"}, "in vitro": {"test": "in vitro", "settings": "rat, plasma"}}, "note": "Bridge positions count the residues as written; N and C are the ends. Peptide text beside a SMILES is read from it."}
{"compound": "Ac-NH-Asp-Lys-[Lys-Asn-His-Glu-Asp]-Glu-Asp-[Lys-Phe-Tyr-Gln-Asp]-CO-NH2 [peptide 24]", "values": [{"measurement": "Helicity (%) via CD", "setting": "[1]", "result": 25.2, "unit": "%"}]}
{"compound": "Ac-NH-His-Glu-[Lys-Glu-Asp-Leu-dPra]-Tyr-Gln-CO-NH2 [compound 13]", "values": [{"measurement": "Helicity (%) via CD", "setting": "[1]", "result": 18.1, "unit": "%"}]}
{"compound": "Ac-NH-His-Glu-S5-Glu-Asp-Leu-S5-Tyr-Gln-CO-NH2 [linear 11]", "values": [{"measurement": "Helicity (%) via CD", "setting": "[1]", "result": 11.0, "unit": "%"}]}
{"compound": "Apelin-13 (QRPRLSHKGPMPF; Apelin-13; UniProt Q9ULZ1 65-77, looked up)", "values": [{"measurement": "In vitro half-life (t1/2), in words", "setting": "[2]", "result": "short in vitro half-life"}]}
{"compound": "CC(=O)N[C@@H](Cc1c[nH]cn1)C(=O)N[C@@H](CCC(=O)O)C(=O)N[C@H]1CCCCNC(=O)C[C@@H](C(=O)N[C@@H](Cc2ccc(O)cc2)C(=O)N[C@@H](CCC(N)=O)C(N)=O)NC(=O)[C@H](CC(C)C)NC(=O)[C@H](CC(=O)O)NC(=O)[C@H](CCC(=O)O)NC1=O", "note": "[peptide 4, Ac-NH-His-Glu-[Lys-Glu-Asp-Leu-Asp]-Tyr-Gln-CO-NH2] (Ac-HEKEDLDYQ-NH2; lactam 3-7)", "values": [{"measurement": "helicity", "setting": "circular dichroism", "result": 55.5, "unit": "%"}, {"measurement": "Helicity in 50%TFE (%)", "setting": "[3]", "result": 49.4, "unit": "%"}, {"measurement": "Distorted helix2 with BeStSel", "setting": "[4]", "result": 18.3, "unit": "%"}, {"measurement": "Helical content (α-helical character) with BeStSel", "setting": "[4]", "result": 37.0, "unit": "%"}, {"measurement": "Regular helix1 with BeStSel", "setting": "[4]", "result": 18.7, "unit": "%"}, {"measurement": "Luminescence signal (RLUs), disruption of SmBiT-ACE2 + LgBiT-RBD", "setting": "[5]", "result": "reduced the luminescence signal"}, {"measurement": "Degradation / stability in rat plasma over 24 h", "setting": "[6]", "result": "significantly more stable"}, {"measurement": "half-life", "setting": "in vitro", "result": 5, "unit": "h"}]}
